US20050148495A1, “Methods and materials including for treating acne” (priority 2003, published 2005)
≈ marks a conversion by molar mass, not a printed value. Where two headings read alike, the source gives them in different places. Non-standard residues stand in square brackets, D forms with d. Residues, ends and D or L forms follow the SMILES beside them. d1Nal = N[C@H](Cc1cccc2ccccc12)C(=O)O

Tests used:
[1] = design: decrease of plasma levels within the first 12 hours: dose or concentration left out as unconfirmed; conditions: for T1/2α / T1/2β / T1/2γ / T1/4 average / Vc: Sinclair mini-pig
[2] = test system: CD [Crl:CD (SD)IGS BR] rats; assay: Rat subchronic toxicity test, subcutaneous, 30 days; type: in vivo
Procedure: XMP.629 was evaluated for potential subchronic dose toxicity after at least 30 consecutive days of administration to CD®[CrI: CD® (SD)IGS BR] rats. This study consisted of four main study groups, each containing ten rats/sex/group, and four toxicokinetic (TK) groups each containing six rats/sex/group. Three of the four main study and TK groups received XMP.629 by bolus subcutaneous injection at dose levels of 0.3, 1.0, and 3.0 mg/kg/day and at a dose volume of 3.0 mL/kg. One main study and TK group each served as control groups and received a vehicle (saline/sodium acetate buffer, pH 6.0) at the same dose volume. The TK groups were used for the assessment of plasma XMP.629 concentrations and to evaluate potential effects from repeat-dose administration of XMP.629 on antibody formation in a standardized assay. Blood was collected for plasma analysis on Days 1 and 28. […]
All rats were observed twice daily for morbidity, mortality, injury, and availability of food and water. Body weights were measured pretest and weekly for all rats and observations for clinical signs and measurements for food consumption were conducted weekly during the course of the study on main study rats. […] At the end of the treatment period for the main study rats, various hematology, clinical chemistry, and urinalysis parameters were evaluated. […]

[3] = test system: P. acnes; conditions: for MBC Range: in µg/mL
Procedure: An in vitro assessment of antibiotic activity in XMP.629 and various known antibiotics against a representative panel of bacterial strains associated with acne was conducted. A broth dilution methodology was employed using guidelines established by National Committee for Clinical Laboratory Standards (NCCLS) for anaerobic organisms to establish an antibacterial profile for XMP.629. Assays to determine the minimal bactericidal concentrations (MBC) and minimal inhibitory concentration (MIC) were conducted for XMP.629 and other known antibiotics.
Inoculum from a representative panel of bacterial strains associated with acne, such as P. acnes, P. avidum, P. granulosum, and Staphylococcus epidermis was prepared by suspending approximately 5-10 isolated bacterial colonies in pre-reduced MicroScan® Inoculum Water (Dade Behring, Deerfield, Ill.), and growing the bacterial suspension to log phase (approximately 48 hrs). An inoculum of between 1-5×10^6/mL was achieved by adding 100 μL of the suspension to 25 mL Brain Heart Infusion Broth (BHI) (Anaerobe Systems, Morgan Hill, Calif.).
A stock solution of XMP.629 dissolved in water at a concentration of 4.0 mg/mL was prepared. Dilute solutions of XMP.629 at concentrations ranging from about 1.25 to about 160 μg/mL were made in either water or formulation buffer (130 mM sodium chloride, 0.2% P103 (poloxamer 333), and 0.10% EDTA, pH 7.3).
Control tubes containing only water or formulation buffer were prepared for each isolate. Initial growth controls were determined by removing 10 μL from the water control tube and diluting it by 100 fold. From this dilution, 10 μL was used for inoculation and for spreading over the surface onto Laked Blood Agar (LBA) (Anaerobe Systems, Morgan Hill, Calif.) plates. The tubes and plates were incubated in an anaerobic atmosphere at 37° C. for 48 h.

[4] = test system: Staphylococcus aureus; conditions: for MBC: agent alone
[5] = 0.05 mg/kg XMP.629 acetate short IV infusion
[6] = 0.2 mg/kg XMP.629 acetate short IV infusion
[7] = ATCC 6919, Formulation Buffer Solvent, Study 1
[8] = ATCC 6919, Formulation Buffer Solvent, Study 2
[9] = ATCC 6919, Water Solvent, Study 1
[10] = ATCC 6919, Water Solvent, Study 2
[11] = ATCC 6919, XMP.629 composition of Example 5 (Table 12)
[12] = ATCC 11827, Formulation Buffer Solvent, Study 1
[13] = ATCC 11827, Formulation Buffer Solvent, Study 2
[14] = ATCC 11827, Water Solvent, Study 1
[15] = ATCC 11827, Water Solvent, Study 2
[16] = ATCC 11828, composition of Example 5
[17] = Clindamycin Resistant C678, composition of Example 5
[18] = Clindamycin Resistant C767, composition of Example 5
[19] = Clindamycin Resistant C768, composition of Example 5
[20] = Clindamycin Resistant C769, composition of Example 5
[21] = Clindamycin Resistant C770, composition of Example 5
[22] = P. acnes strains of Table 7, composition of Example 5
[23] = P. acnes, Clindamycin resistant, 16 strains
[24] = P. acnes, Clindamycin sensitive, 20 strains
[25] = Propionibacterium acnes, 36 strains/clinical isolates, formulation buffer
[26] = RMA 9833, Formulation Buffer Solvent, Study 1
[27] = RMA 9833, Formulation Buffer Solvent, Study 2
[28] = RMA 9833, Water Solvent, Study 1
[29] = RMA 9833, Water Solvent, Study 2
[30] = RMA 9833, composition of Example 5
[31] = RMA 12689, Formulation Buffer Solvent, Study 1
[32] = RMA 12689, Formulation Buffer Solvent, Study 2
[33] = RMA 12689, Water Solvent, Study 1
[34] = RMA 12689, Water Solvent, Study 2
[35] = RMA 12689, composition of Example 5
[36] = RMA 12732, Formulation Buffer Solvent, Study 1
[37] = RMA 12732, Formulation Buffer Solvent, Study 2
[38] = RMA 12732, Water Solvent, Study 1
[39] = RMA 12732, Water Solvent, Study 2
[40] = RMA 12908, Formulation Buffer Solvent, Study 1
[41] = RMA 12908, Formulation Buffer Solvent, Study 2
[42] = RMA 12908, Water Solvent, Study 1
[43] = RMA 12908, Water Solvent, Study 2
[44] = RMA 12908, composition of Example 5
[45] = RMA 13399, Formulation Buffer Solvent, Study 1
[46] = RMA 13399, Formulation Buffer Solvent, Study 2
[47] = RMA 13399, Water Solvent, Study 1
[48] = RMA 13399, Water Solvent, Study 2
[49] = UD 738, composition of Example 5
[50] = XMP.629 composition of Example 5 (Table 12), P. acnes strains of Table 7

CC(C)C[C@@H](NC(=O)[C@H](N)CCCCN)C(=O)N[C@H](Cc1ccccc1)C(=O)N[C@H](CCCNC(=N)N)C(=O)N[C@H](Cc1cccc2ccccc12)C(=O)N[C@H](CCC(N)=O)C(=O)N[C@H](C)C(=O)N[C@H](CCCCN)C(=O)N[C@H](Cc1cccc2ccccc12)C(N)=O [XMP.629, NH2-lys-leu-phe-arg-(3-(1-naphthyl)-ala)-gln-ala-lys-(3-(1-naphthyl)-ala)-CONH2] (H-[dK][dL][dF][dR][d1Nal][dQ][dA][dK][d1Nal]-NH2)
T1/2α [1, 5]: 5.46 min
T1/2β [1, 5]: 1.28 h
T1/2γ [1, 5]: 15.0 h
T1/4 average [1, 5]: 0.36 h
Vc [1, 5]: 0.0674 L/kg
T1/2α [1, 6]: 1.86 min
T1/2β [1, 6]: 1.03 h
T1/2γ [1, 6]: 15.4 h
T1/4 average [1, 6]: 0.58 h
Vc [1, 6]: 0.1018 L/kg
decrease of plasma levels within the first 12 hours ([1]; short IV infusion): 100 fold
main finding ([2]; 0.3, 1.0, and 3.0 mg/kg/day subcutaneous for 30 days): injection site lesions
no-observed-effect level (NOEL) for systemic effects ([2]; subcutaneous, 30 days): greater than 3.0 mg/kg/day
MBC [3, 7]: 1 µg/mL (≈ 0.779 µM)
MIC [3, 7]: 0.5 µg/mL (≈ 0.39 µM)
MBC [3, 8]: 0.50 µg/mL (≈ 0.39 µM)
MIC [3, 8]: 1 µg/mL (≈ 0.779 µM)
MBC [3, 9]: 4 µg/mL (≈ 3.12 µM)
MIC [3, 9]: 2 µg/mL (≈ 1.56 µM)
MBC [3, 10]: 2 µg/mL (≈ 1.56 µM)
MIC [3, 10]: 2 µg/mL (≈ 1.56 µM)
MBC [3, 11]: 2 µg/mL (≈ 1.56 µM)
MIC [3, 11]: 1 µg/mL (≈ 0.779 µM)
MBC [3, 12]: 1 µg/mL (≈ 0.779 µM)
MIC [3, 12]: 0.5 µg/mL (≈ 0.39 µM)
MBC [3, 13]: 1 µg/mL (≈ 0.779 µM)
MIC [3, 13]: 1 µg/mL (≈ 0.779 µM)
MBC [3, 14]: 2 µg/mL (≈ 1.56 µM)
MIC [3, 14]: 2 µg/mL (≈ 1.56 µM)
MBC [3, 15]: 2 µg/mL (≈ 1.56 µM)
MIC [3, 15]: 2 µg/mL (≈ 1.56 µM)
MBC [3, 16]: 2 µg/mL (≈ 1.56 µM)
MIC [3, 16]: 1 µg/mL (≈ 0.779 µM)
MBC [3, 17]: 4 µg/mL (≈ 3.12 µM)
MIC [3, 17]: 1 µg/mL (≈ 0.779 µM)
MBC [3, 18]: 2 µg/mL (≈ 1.56 µM)
MIC [3, 18]: 1 µg/mL (≈ 0.779 µM)
MBC [3, 19]: 4 µg/mL (≈ 3.12 µM)
MIC [3, 19]: 2 µg/mL (≈ 1.56 µM)
MBC [3, 20]: 2 µg/mL (≈ 1.56 µM)
MIC [3, 20]: 1 µg/mL (≈ 0.779 µM)
MBC [3, 21]: 2 µg/mL (≈ 1.56 µM)
MIC [3, 21]: 0.5 µg/mL (≈ 0.39 µM)
MIC90, XMP.629 data reported as MBC values ([3]; P. acnes): 1 µg/mL (≈ 0.779 µM)
MBC Geo. Mean [3, 22]: 2.3 µg/mL (≈ 1.79 µM)
MIC Geo. Mean [3, 22]: 0.95 µg/mL (≈ 0.74 µM)
MBC50 [3, 23]: 1 µg/mL (≈ 0.779 µM)
MBC90 [3, 23]: 2 µg/mL (≈ 1.56 µM)
MBC Range [3, 23]: 1-2
MBC50 [3, 24]: 1 µg/mL (≈ 0.779 µM)
MBC90 [3, 24]: 2 µg/mL (≈ 1.56 µM)
MBC Range [3, 24]: 0.25-2
MBC50 [3, 25]: 1 µg/mL (≈ 0.779 µM)
MBC90 [3, 25]: 2 µg/mL (≈ 1.56 µM)
MBC Range ([3]; Propionibacterium acnes, 36 strains/clinical isolates): 0.25-2
MBC [3, 26]: 1 µg/mL (≈ 0.779 µM)
MIC [3, 26]: 0.5 µg/mL (≈ 0.39 µM)
MBC [3, 27]: 2 µg/mL (≈ 1.56 µM)
MIC [3, 27]: 1 µg/mL (≈ 0.779 µM)
MBC [3, 28]: 2 µg/mL (≈ 1.56 µM)
MIC [3, 28]: 1 µg/mL (≈ 0.779 µM)
MBC [3, 29]: 2 µg/mL (≈ 1.56 µM)
MIC [3, 29]: 2 µg/mL (≈ 1.56 µM)
MBC [3, 30]: 1 µg/mL (≈ 0.779 µM)
MIC [3, 30]: 0.5 µg/mL (≈ 0.39 µM)
MBC [3, 31]: 2 µg/mL (≈ 1.56 µM)
MIC [3, 31]: 1 µg/mL (≈ 0.779 µM)
MBC [3, 32]: 2 µg/mL (≈ 1.56 µM)
MIC [3, 32]: 1 µg/mL (≈ 0.779 µM)
MBC [3, 33]: 4 µg/mL (≈ 3.12 µM)
MIC [3, 33]: 2 µg/mL (≈ 1.56 µM)
MBC [3, 34]: 2 µg/mL (≈ 1.56 µM)
MIC [3, 34]: 2 µg/mL (≈ 1.56 µM)
MBC [3, 35]: 2 µg/mL (≈ 1.56 µM)
MIC [3, 35]: 1 µg/mL (≈ 0.779 µM)
MBC [3, 36]: 2 µg/mL (≈ 1.56 µM)
MIC [3, 36]: 2 µg/mL (≈ 1.56 µM)
MBC [3, 37]: 2 µg/mL (≈ 1.56 µM)
MIC [3, 37]: 2 µg/mL (≈ 1.56 µM)
MBC [3, 38]: 4 µg/mL (≈ 3.12 µM)
MIC [3, 38]: 4 µg/mL (≈ 3.12 µM)
MBC [3, 39]: 2 µg/mL (≈ 1.56 µM)
MIC [3, 39]: 4 µg/mL (≈ 3.12 µM)
MBC [3, 40]: 2 µg/mL (≈ 1.56 µM)
MIC [3, 40]: 2 µg/mL (≈ 1.56 µM)
MBC [3, 41]: 2 µg/mL (≈ 1.56 µM)
MIC [3, 41]: 2 µg/mL (≈ 1.56 µM)
MBC [3, 42]: 4 µg/mL (≈ 3.12 µM)
MIC [3, 42]: 4 µg/mL (≈ 3.12 µM)
MBC [3, 43]: 4 µg/mL (≈ 3.12 µM)
MIC [3, 43]: 2 µg/mL (≈ 1.56 µM)
MBC [3, 44]: 2 µg/mL (≈ 1.56 µM)
MIC [3, 44]: 1 µg/mL (≈ 0.779 µM)
MBC [3, 45]: 1 µg/mL (≈ 0.779 µM)
MIC [3, 45]: 0.5 µg/mL (≈ 0.39 µM)
MBC [3, 46]: 2 µg/mL (≈ 1.56 µM)
MIC [3, 46]: 2 µg/mL (≈ 1.56 µM)
MBC [3, 47]: 4 µg/mL (≈ 3.12 µM)
MIC [3, 47]: 2 µg/mL (≈ 1.56 µM)
MBC [3, 48]: 4 µg/mL (≈ 3.12 µM)
MIC [3, 48]: 4 µg/mL (≈ 3.12 µM)
MBC [3, 49]: 2 µg/mL (≈ 1.56 µM)
MIC [3, 49]: 0.5 µg/mL (≈ 0.39 µM)
MBC50 [3, 50]: 2 µg/mL (≈ 1.56 µM)
MBC90 [3, 50]: 2 µg/mL (≈ 1.56 µM)
MBC ([4]; Staphylococcus aureus 076U-550): 8 µg/mL (≈ 6.23 µM)
MBC ([4]; Staphylococcus aureus 230U-579): 8 µg/mL (≈ 6.23 µM)
MBC ([4]; Staphylococcus aureus 314U-148): 8 µg/mL (≈ 6.23 µM)
XMP.629 MBC ([4]; Staphylococcus aureus 342U-116, XMP.629 alone): 8 µg/mL
MBC ([4]; Staphylococcus aureus 342U-116): 8 µg/mL (≈ 6.23 µM)
MBC ([4]; Staphylococcus aureus 15031-1857): 4 µg/mL (≈ 3.12 µM)
